Experimental data taken from patent US7148229B2, “Sulfonamide substituted xanthine derivatives” (Hoffman-La Roche Inc., priority 2003, dated 2006).

Biological target: T1, recombinant human cytosolic PEPCK (GST-PEPCK) (Homo sapiens, UniProt P35558)
T1 construct: made in house; host or cells: E. coli
T1 sequence (P35558 1-622): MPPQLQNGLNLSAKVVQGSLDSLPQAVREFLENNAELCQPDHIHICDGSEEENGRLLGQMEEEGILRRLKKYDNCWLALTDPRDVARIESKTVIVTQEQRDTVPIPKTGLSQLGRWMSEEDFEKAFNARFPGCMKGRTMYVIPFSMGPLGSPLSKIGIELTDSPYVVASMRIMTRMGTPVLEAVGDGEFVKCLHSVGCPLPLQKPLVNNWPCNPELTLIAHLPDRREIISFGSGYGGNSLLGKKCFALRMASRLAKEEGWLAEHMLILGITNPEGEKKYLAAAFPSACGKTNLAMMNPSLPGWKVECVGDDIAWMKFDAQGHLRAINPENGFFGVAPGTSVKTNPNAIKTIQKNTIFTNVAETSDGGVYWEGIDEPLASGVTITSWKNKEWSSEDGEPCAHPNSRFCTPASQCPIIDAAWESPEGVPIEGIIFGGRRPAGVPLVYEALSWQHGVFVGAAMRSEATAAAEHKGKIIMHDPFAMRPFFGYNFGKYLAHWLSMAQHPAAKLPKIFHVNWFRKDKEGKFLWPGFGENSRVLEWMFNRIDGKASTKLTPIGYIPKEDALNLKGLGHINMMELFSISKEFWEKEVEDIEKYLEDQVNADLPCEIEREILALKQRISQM
Assay: PEPCK enzyme assay (coupled to pyruvate kinase / lactate dehydrogenase, absorbance at 340 nm)
Assay type: biochemical
Settings: in vitro PEPCK enzymatic assay; GTP at 3 fold and OAA at 10 fold Km; final DMSO 10%; room temperature, twenty minutes
Experimental: E. coli cells expressing GST-PEPCK were suspended in 5 volumes of lysis buffer (50 mM Tris-hydroxymethyl aminomethyl (TRIS), 150 mM sodium chloride (NaCl), 10 mM ethylene-diametetraacetic acid (EDTA), 5 mM dithiothreitol(DTT), 1% Nonidet P-40, pH 7.4) in the presence of protease inhibitors, incubated with lysozyme at 200 micrograms/ml for 30 min. at room temperature, and sonicated 4×30 seconds at 4 degrees C. After centrifugation at 12,000×g for 20 min. to remove insoluble material, the supernatant was loaded onto glutathione Sepharose (Pharmacia), washed with lysis buffer followed by washing with lysis buffer in the absence of NP-40. GST-PEPCK was eluted with the same buffer containing 20 mM glutathione. The eluted protein was concentrated and dialyzed against 25 mM Hepes(N-[2-hydroxyethyl]piperazine-N′[2-ethanesulfonic acid), 150 mM NaCl, 2.5 mM EDTA, 5 mM DTT, 30% glycerol, pH 7.4, and stored at −20° C.
The inhibitory effect of the compounds of the present invention on PEPCK enzymatic activity was determined using recombinant human cytosolic PEPCK, expressed and purified from E.coli as a GST-fusion. Guanosine triphosphate (GTP) and manganese dependent PEPCK enzyme activity catalyzed the decarboxylation of oxalacetate leading to the formation of guanosine diphosphate (GDP) and phosphoenol pyruvate (PEP). This reaction is coupled to pyruvate kinase and lactate dehydrogenase catalyzed reactions and the overall reaction rate determined by measuring the change in absorbance at 340 nm (Chang, H. C. and Lane M. D., J. Biol. Chem. 241:2413–2420, 1966). The following modifications were made to the protocol: 2.5 μg of recombinant, human cytosolic glutathione-S-transferase (GST)-PEPCK was added to a reaction mixture at room temperature which contained 0.3 mM GTP, 0.3 mM oxaloacetate (OAA), 3 mM magnesium chloride (MgCl2), 0.075 mM manganese chloride (MnCl2), 30 mM potassium phosphates (KPO4), pH 7.6, 1 mM dithiothreitol (DTT), 0.2 mM adenosine diphosphate (ADP), 1 mM nicotinamide adenine dinucleotide, reduced form (NADH), 0.9 Units/ml each of pyruvate kinase and lactate dehydrogenase and 1 mg/ml bovine serum albumin (BSA). Test compounds were added such that final concentration of DMSO was 10%. Reactions were run for twenty minutes.
Km values for GTP and OAA were determined according to Michelis-Menton conditions as described in Comish-Bowden (Fundamentals of Enzyme Kinetics, 1995) in essentially the coupled assay conditions described above. […] Test compounds were added to reactions over a range of concentrations and IC50's were calculated from plots of inhibitor concentration versus enzyme rate. This method of determination of IC50 values is equally applicable to calculations based on PEPCK cellular assay.

Compound	IC50
CCCCn1c(=O)n(Cc2ccccc2)c(=O)c2[nH]c(Cc3ccc(NS(C)(=O)=O)cc3)nc21 [Example 24, N-[4-(1-Benzyl-3-butyl-2,6-dioxo-2,3,6,7-tetrahydro-1H-purin-8-ylmethyl)-phenyl]-methanesulfonamide]	7550 nM
CCCCn1c(=O)n(Cc2ccccc2F)c(=O)c2[nH]c(Cc3ccc(S(=O)(=O)Nc4cccnc4)cc3)nc21 [Example 30, 4-[3-Butyl-1-(2-fluoro-benzyl)-2,6-dioxo-2,3,6,7-tetrahydro-1H-purin-8-ylmethyl]-N-pyridin-3-yl-benzenesulfonamide]	4100 nM
CCCCn1c(=O)n(Cc2ccccc2F)c(=O)c2[nH]c(Cc3ccc(S(=O)(=O)Nc4ncccn4)cc3)nc21 [Example 31, 4-[3-Butyl-1-(2-fluoro-benzyl)-2,6-dioxo-2,3,6,7-tetrahydro-1H-purin-8-ylmethyl]-N-pyrimidin-2-yl-benzenesulfonamide]	6350 nM
CCCCn1c(=O)n(Cc2ccccc2F)c(=O)c2[nH]c(Cc3ccc(S(=O)(=O)Nc4c(C)nn(C)c4C)cc3)nc21 [Example 32, 4-[3-Butyl-1-(2-fluoro-benzyl)-2,6-dioxo-2,3,6,7-tetrahydro-1H-purin-8-ylmethyl]-N-(1,3,5-trimethyl-1H-pyrazol-4-yl)-benzenesulfonamide]	6450 nM

These reach a lower IC50. Values come first.

IC50	Compound
2400 nM	CCCCn1c(=O)n(Cc2ccccc2F)c(=O)c2[nH]c(Cc3ccc(S(=O)(=O)Nc4ccccn4)cc3)nc21 [Example 28, 4-[3-Butyl-1-(2-fluoro-benzyl)-2,6-dioxo-2,3,6,7-tetrahydro-1H-purin-8-ylmethyl]-N-pyridin-2-yl-benzenesulfonamide]
2400 nM	CCCCn1c(=O)n(Cc2ccccc2F)c(=O)c2[nH]c(Cc3ccc(S(=O)(=O)Nc4ccncc4)cc3)nc21 [Example 29, 4-[3-Butyl-1-(2-fluoro-benzyl)-2,6-dioxo-2,3,6,7-tetrahydro-1H-purin-8-ylmethyl]-N-pyridin-4-yl-benzenesulfonamide]
1450 nM	Cc1nn(C)cc1S(=O)(=O)N(C)c1ccc(Cc2nc3c([nH]2)c(=O)n(Cc2ccccc2F)c(=O)n3CC2CC2)cc1 [Example 27, 1,3-Dimethyl-1H-pyrazole-4-sulfonic acid {4-[3-cyclopropylmethyl-1-(2-fluoro-benzyl)-2,6-dioxo-2,3,6,7-tetrahydro-1H-purin-8-ylmethyl]-phenyl}-methyl-amide]
980 nM	Cc1nn(C)c(Cl)c1S(=O)(=O)Nc1ccc(Cc2nc3c([nH]2)c(=O)n(Cc2ccccc2F)c(=O)n3CC2CCC2)nc1 [Example 26, 5-Chloro-1,3-dimethyl-1H-pyrazole-4-sulfonic acid {6-[3-cyclobutylmethyl-1-(2-fluoro-benzyl)-2,6-dioxo-2,3,6,7-tetrahydro-1H-purin-8-ylmethyl]-pyridin-3-yl}-amide]
880 nM	CCCCn1c(=O)n(Cc2ccccc2F)c(=O)c2[nH]c(Cc3ccc(NS(=O)(=O)c4c(C)nn(C)c4Cl)cn3)nc21 [Example 25, 5-Chloro-1,3-dimethyl-1H-pyrazole-4-sulfonic acid {6-[3-butyl-1-(2-fluoro-benzyl)-2,6-dioxo-2,3,6,7-tetrahydro-1H-purin-8-ylmethyl]-pyridin-3-yl}-amide]
